# Molecular target: T1, catalytic domain of human PARP14 (residues 1611 to 1801) with NanoLuc tag (Homo sapiens, UniProt Q460N5)
# T1 construct: expressed in transfected cells; host or cells: HEK-293T cells (ATCC), pcDNA3.1(-) vector
# T1 sequence (Q460N5 1611-1801): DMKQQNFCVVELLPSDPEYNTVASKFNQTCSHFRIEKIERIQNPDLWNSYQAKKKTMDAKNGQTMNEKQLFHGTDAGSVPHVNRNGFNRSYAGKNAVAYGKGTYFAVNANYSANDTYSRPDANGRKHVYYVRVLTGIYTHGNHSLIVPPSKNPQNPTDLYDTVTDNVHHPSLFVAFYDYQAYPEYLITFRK
# Experiment: NanoLuc assay for the degradation of PARP14 (NanoLuc-tagged PARP14 overexpressed in HEK-293T cells, 2 hours)
# Format: cell-based
# Conditions: Assay A (Example A): NanoLuc-tagged PARP14 degradation in HEK-293T cells, read-out: DC50
# Method: The insert also contained a NanoLuc tag on the N terminus of the PARP14 protein.
# Degradation of PARP14 protein was assessed using measurement of the NanoLuc tag as proxy for the PARP14 protein. […] Plasmid DNA was diluted in empty vector DNA then added to 1.163 mL of phenol red free OptiMEM (Thermo Fisher). Plasmid DNA concentrations used in each assay described in Table 1. The plasmid DNA was mixed with 78.5 μL of Fugene HD (Promega) and allowed to incubate 5 minutes.
# The transfection was incubated for 24 hrs at 37 degrees in an incubator supplemented with 5% CO2. The cells were then trypsinized and brought up in phenol red free OptiMEM media. […] 40 nL of a dose response curve diluted in DMSO of each test compound was added to the cell plate using a Mosquito (TTP Labtech) and the plate was incubated at 37° C. for 2 hours. Assay plate was brought to room temperature then 20 μL per well of NanoGlo (Promega) was added to the plate. Luminescence was measured on an Envision (Perkin Elmer).
# The average DMSO was calculated from 32 wells containing 0.1% DMSO only in columns 12 and 24 of the assay plate. The % of DMSO values were calculated as described below: […]
# The % of DMSO values were plotted as a function of compound concentration and the following 4-parameter fit was applied to derive the DC50 values:
# where top, bottom, and Hill Coefficient are allowed to float. Y is the % of DMSO and X is the compound concentration
# DC50 data for the Example compounds is provided below in Table 2 (“+” is <0.1 μM; “++” is ≥0.1 μM and <1 μM; and “+++” is ≥1 μM).
row,SMILES,DC50
1,"O=C1CCC(N2C(=O)c3cccc(N4CCN(CC5CCN(C(=O)CN6CCC(COc7cc(F)c8c(=O)[nH]c(CSC9CCOCC9)nc8c7)CC6)CC5)CC4)c3C2=O)C(=O)N1 (stereo not drawn) [Example 21, 2-(2,6-dioxopiperidin-3-yl)-4-(4-((1-(2-(4-(((5-fluoro-4-oxo-2-(((tetrahydro-2H-pyran-4-yl)thio)methyl)-3,4-dihydroquinazolin-7-yl)oxy)methyl)piperidin-1-yl)acetyl)piperidin-4-yl)methyl)piperazin-1-yl)isoindoline-1,3-dione]",< 100 nM
2,"O=C1CCC(N2C(=O)c3cccc(NCCOCC(=O)N4CCC(COc5cc(F)c6c(=O)[nH]c(CSC7CCOCC7)nc6c5)CC4)c3C2=O)C(=O)N1 (stereo not drawn) [Example 22, 2-(2,6-dioxopiperidin-3-yl)-4-((2-(2-(4-(((5-fluoro-4-oxo-2-(((tetrahydro-2H-pyran-4-yl)thio)methyl)-3,4-dihydroquinazolin-7-yl)oxy)methyl)piperidin-1-yl)-2-oxoethoxy)ethyl)amino)isoindoline-1,3-dione]",< 100 nM
3,"O=C1CCC(N2C(=O)c3ccc(N4CCC(COc5cc(F)c6c(=O)[nH]c(CSC7CCOCC7)nc6c5)CC4)cc3C2=O)C(=O)N1 (stereo not drawn) [Example 23, 2-(2,6-dioxopiperidin-3-yl)-5-(4-(((5-fluoro-4-oxo-2-(((tetrahydro-2H-pyran-4-yl)thio)methyl)-3,4-dihydroquinazolin-7-yl)oxy)methyl)piperidin-1-yl)isoindoline-1,3-dione]",< 100 nM
4,"O=C1CCC(N2C(=O)c3cccc(N4CCC(COc5cc(F)c6c(=O)[nH]c(CSC7CCOCC7)nc6c5)CC4)c3C2=O)C(=O)N1 (stereo not drawn) [Example 24, 2-(2,6-dioxopiperidin-3-yl)-4-(4-(((5-fluoro-4-oxo-2-(((tetrahydro-2H-pyran-4-yl)thio)methyl)-3,4-dihydroquinazolin-7-yl)oxy)methyl)piperidin-1-yl)isoindoline-1,3-dione]",< 100 nM
5,"O=C1CCC(N2C(=O)c3ccc(NC(=O)CN4CCC(COc5cc(F)c6c(=O)[nH]c(CSC7CCOCC7)nc6c5)CC4)cc3C2=O)C(=O)N1 (stereo not drawn) [Example 25, N-(2-(2,6-dioxopiperidin-3-yl)-1,3-dioxoisoindolin-5-yl)-2-(4-(((5-fluoro-4-oxo-2-(((tetrahydro-2H-pyran-4-yl)thio)methyl)-3,4-dihydroquinazolin-7-yl)oxy)methyl)piperidin-1-yl)acetamide]",< 100 nM
6,"O=C1CCC(N2C(=O)c3cccc(NC(=O)CN4CCC(COc5cc(F)c6c(=O)[nH]c(CSC7CCOCC7)nc6c5)CC4)c3C2=O)C(=O)N1 (stereo not drawn) [Example 26, N-(2-(2,6-dioxopiperidin-3-yl)-1,3-dioxoisoindolin-4-yl)-2-(4-(((5-fluoro-4-oxo-2-(((tetrahydro-2H-pyran-4-yl)thio)methyl)-3,4-dihydroquinazolin-7-yl)oxy)methyl)piperidin-1-yl)acetamide]",< 100 nM
7,"O=C1CCC(N2C(=O)c3ccc(C#CCN4CCC(COc5cc(F)c6c(=O)[nH]c(CSC7CCOCC7)nc6c5)CC4)cc3C2=O)C(=O)N1 (stereo not drawn) [Example 27, 2-(2,6-dioxopiperidin-3-yl)-5-(3-(4-(((5-fluoro-4-oxo-2-(((tetrahydro-2H-pyran-4-yl)thio)methyl)-3,4-dihydroquinazolin-7-yl)oxy)methyl)piperidin-1-yl)prop-1-yn-1-yl)isoindoline-1,3-dione]",< 100 nM
8,"O=C1CCC(N2C(=O)c3cccc(C#CCN4CCC(COc5cc(F)c6c(=O)[nH]c(CSC7CCOCC7)nc6c5)CC4)c3C2=O)C(=O)N1 (stereo not drawn) [Example 28, 2-(2,6-dioxopiperidin-3-yl)-4-(3-(4-(((5-fluoro-4-oxo-2-(((tetrahydro-2H-pyran-4-yl)thio)methyl)-3,4-dihydroquinazolin-7-yl)oxy)methyl)piperidin-1-yl)prop-1-yn-1-yl)isoindoline-1,3-dione]",< 100 nM
9,"O=C1CCC(N2Cc3cc(C#CCN4CCC(COc5cc(F)c6c(=O)[nH]c(CSC7CCOCC7)nc6c5)CC4)ccc3C2=O)C(=O)N1 (stereo not drawn) [Example 29, 3-(5-(3-(4-(((5-fluoro-4-oxo-2-(((tetrahydro-2H-pyran-4-yl)thio)methyl)-3,4-dihydroquinazolin-7-yl)oxy)methyl)piperidin-1-yl)prop-1-yn-1-yl)-1-oxoisoindolin-2-yl)piperidine-2,6-dione]",< 100 nM
10,"O=C1CCC(N2Cc3c(C#CCN4CCC(COc5cc(F)c6c(=O)[nH]c(CSC7CCOCC7)nc6c5)CC4)cccc3C2=O)C(=O)N1 (stereo not drawn) [Example 30, 3-(4-(3-(4-(((5-fluoro-4-oxo-2-(((tetrahydro-2H-pyran-4-yl)thio)methyl)-3,4-dihydroquinazolin-7-yl)oxy)methyl)piperidin-1-yl)prop-1-yn-1-yl)-1-oxoisoindolin-2-yl)piperidine-2,6-dione]",< 100 nM
11,"Cn1c(=O)n(C2CCC(=O)NC2=O)c2cccc(C#CCN3CCC(COc4cc(F)c5c(=O)[nH]c(CSC6CCOCC6)nc5c4)CC3)c21 (stereo not drawn) [Example 31, 3-(4-(3-(4-(((5-fluoro-4-oxo-2-(((tetrahydro-2H-pyran-4-yl)thio)methyl)-3,4-dihydroquinazolin-7-yl)oxy)methyl)piperidin-1-yl)prop-1-yn-1-yl)-3-methyl-2-oxo-2,3-dihydro-1H-benzo[d]imidazol-1-yl)piperidine-2,6-dione]",< 100 nM
12,"O=C1CCN(c2ccc(C#CCN3CCC(COc4cc(F)c5c(=O)[nH]c(CSC6CCOCC6)nc5c4)CC3)cc2)C(=O)N1 [Example 32, 1-(4-(3-(4-(((5-fluoro-4-oxo-2-(((tetrahydro-2H-pyran-4-yl)thio)methyl)-3,4-dihydroquinazolin-7-yl)oxy)methyl)piperidin-1-yl)prop-1-yn-1-yl)phenyl)dihydropyrimidine-2,4(1H,3H)-dione]",< 100 nM
13,"O=C1CCN(c2cccc(C#CCN3CCC(COc4cc(F)c5c(=O)[nH]c(CSC6CCOCC6)nc5c4)CC3)c2)C(=O)N1 [Example 33, 1-(3-(3-(4-(((5-fluoro-4-oxo-2-(((tetrahydro-2H-pyran-4-yl)thio)methyl)-3,4-dihydroquinazolin-7-yl)oxy)methyl)piperidin-1-yl)prop-1-yn-1-yl)phenyl)dihydropyrimidine-2,4(1H,3H)-dione]",< 100 nM
14,"O=C1CCC(N2C(=O)c3ccc(N4CCC(CN5CCC(COc6cc(F)c7c(=O)[nH]c(CSC8CCOCC8)nc7c6)CC5)CC4)cc3C2=O)C(=O)N1 (stereo not drawn) [Example 34, 2-(2,6-dioxopiperidin-3-yl)-5-(4-((4-(((5-fluoro-4-oxo-2-(((tetrahydro-2H-pyran-4-yl)thio)methyl)-3,4-dihydroquinazolin-7-yl)oxy)methyl)piperidin-1-yl)methyl)piperidin-1-yl)isoindoline-1,3-dione]",< 100 nM
15,"O=C1CCC(N2C(=O)c3cccc(N4CCC(CN5CCC(COc6cc(F)c7c(=O)[nH]c(CSC8CCOCC8)nc7c6)CC5)CC4)c3C2=O)C(=O)N1 (stereo not drawn) [Example 35, 2-(2,6-dioxopiperidin-3-yl)-4-(4-((4-(((5-fluoro-4-oxo-2-(((tetrahydro-2H-pyran-4-yl)thio)methyl)-3,4-dihydroquinazolin-7-yl)oxy)methyl)piperidin-1-yl)methyl)piperidin-1-yl)isoindoline-1,3-dione]",< 100 nM
16,"O=C1CCC(N2C(=O)c3ccc(N4CC(CN5CCC(COc6cc(F)c7c(=O)[nH]c(CSC8CCOCC8)nc7c6)CC5)C4)cc3C2=O)C(=O)N1 (stereo not drawn) [Example 36, 2-(2,6-dioxopiperidin-3-yl)-5-(3-((4-(((5-fluoro-4-oxo-2-(((tetrahydro-2H-pyran-4-yl)thio)methyl)-3,4-dihydroquinazolin-7-yl)oxy)methyl)piperidin-1-yl)methyl)azetidin-1-yl)isoindoline-1,3-dione]",< 100 nM
17,"O=C1CCC(N2C(=O)c3cccc(N4CC(CN5CCC(COc6cc(F)c7c(=O)[nH]c(CSC8CCOCC8)nc7c6)CC5)C4)c3C2=O)C(=O)N1 (stereo not drawn) [Example 37, 2-(2,6-dioxopiperidin-3-yl)-4-(3-((4-(((5-fluoro-4-oxo-2-(((tetrahydro-2H-pyran-4-yl)thio)methyl)-3,4-dihydroquinazolin-7-yl)oxy)methyl)piperidin-1-yl)methyl)azetidin-1-yl)isoindoline-1,3-dione]",< 100 nM
18,"O=C1CCC(N2Cc3c(cccc3N3CC(CN4CCC(COc5cc(F)c6c(=O)[nH]c(CSC7CCOCC7)nc6c5)CC4)C3)C2=O)C(=O)N1 (stereo not drawn) [Example 38, 3-(4-(3-((4-(((5-fluoro-4-oxo-2-(((tetrahydro-2H-pyran-4-yl)thio)methyl)-3,4-dihydroquinazolin-7-yl)oxy)methyl)piperidin-1-yl)methyl)azetidin-1-yl)-1-oxoisoindolin-2-yl)piperidine-2,6-dione]",< 100 nM

# Source: patent US20240101540A1, “TARGETED PROTEIN DEGRADATION OF PARP14 FOR USE IN THERAPY” (Ribon Therapeutics, Inc., priority 2022, published 2024)
